According to patent publication US20090012168A1, “ADIPONECTION INDUCERS OR SECRETAGOGUES” (AJINOMOTO CO., INC., priority 2004, published 2009):

Tests used:
[1] = tested on: 3T3-L1 cells; experiment: Adiponectin concentration in culture supernatant of 3T3-L1 cells (LANCE method); assay type: cell-based, mouse; conditions: for Concentration of adiponectin in the case of adding one kind of amino acids to Zero medium: 3T3-L1 culture supernatant after 72 hour incubation, amino acid at fourfold of that in Full medium, average values, N=2, Zero medium 61; for concentration of adiponectin in the culture supernatant in mediums to which the amino acid was added: amino acid added to Zero medium at fourfold of Full medium; for concentration of adiponectin in the culture supernatant in mediums to which the amino acid was added / concentration of adiponectin in mediums without the amino acid: 72 hour incubation; for concentration of adiponectin in mediums without the amino acid: amino acid removed from Full medium; for production of adiponectin as compared with Zero medium (FIG. 1): 3T3-L1 cells, 72 hours, amino acid concentration changed in Zero medium, mixture equimolar
Method: 3T3-L1 cells were suspended in D-MEM medium containing 10% fetal bovine serum to become 1.5×10^5 cells/mL and seeded. After the incubation in the CO2 incubator at 37° C. for 72 hours, the medium was removed by suction. Then, the medium was exchanged for D-MEM medium containing 10 ug/mL of insulin, 1 uM of dexamethazone, 0.5 mM of IBMX (3-isobutyl-1-methylxanthine) and 10% fetal bovine serum, and further incubated in the CO2 incubator at 37° C. for 48 hours. After removing the medium, it was further exchanged for the medium wherein the concentrations of amino acids were changed, with addition of 10% dialyzed fetal bovine serum (F-0392, by SIGMA), and further incubated in CO2 incubator at 37° C. for 72 hours.
D-MEM medium contains, as amino acids, 30 mg/L of glycine (Gly); 35.6 mg/L of alanine (Ala); 42 mg/L of serine (Ser); 95 mg/L of threonine (Thr); 63 mg/L of cysteine (Cys)/2HCl; 30 mg/L of methionine (Met); 1168 mg/L of glutamine (Gln); 52.8 mg/L of asparagine (Asn); 58.8 mg/L of glutaminic acid (Glu); 106.4 mg/L of asparaginic acid (Asp); 94 mg/L of valine (Val); 105 mg/L of leucine (Leu); 105 mg/L of isoleucine (Ile); 66 mg/L of phenylalanine (Phe); 208 mg/L of tylosin (Tyr)/2Na/2H2O; 16 mg/L of triptophan (Trp); 146 mg/L of lysine (Lys)/HCl; 84 mg/L of arginine (Arg); 42 mg/L of histidine (His)/HCl/H2O; and 46 mg/L of proline (Pro). Regarding the expression of the mediums, for example, Δ Met indicates the medium having the same compositions of vitamins and salts as those of D-MEM medium and said medium wherein one kind of amino acids, methionine (Met), is removed. Full medium indicates the one containing all amino acids, and Zero medium indicates the one removing all amino acids.
Eu (Europium) chelate labeling of anti-mouse adiponectin antibody (AF1119, by R&D Systems) was conducted by using 100 ug of LANCE Eu-W1024-ITC chelate (AD0013 by Perkin Elmer), which is a Eu chelate labeling reagent, to 200 μg of the antibody in accordance with the method described in the manual. Biotin labeling of anti-mouse adiponectin antibody (AF1119, by R&D Systems) was conducted by using 26.8 ug of NHS-Biotin (1418165, Biotin Labeling Kit, by Boehringer Mannheim), which is a biotin labeling reagent, to 100 μg of the antibody in accordance with the method described in the manual.
The amount of adiponectin in the cell culture supernatant was measured as follows. The culture supernatant was diluted tenfold with TBS (Tris-buffered saline; 20 mM Tris-HCl pH7.4, 0.15M NaCl) containing 0.1% bovine serum albumin (BSA), and 10 μL thereof was mixed with 300 ng/mL of the Eu chelate labeled antibody, 300 ng/mL of the biotin labeled antibody and 10 μL of a solution (TBS containing 0.1% BSA) containing 2.5 μg/mL of Streptavidin-APC (AD0201, by Perkin Elmer) on the 384-well plate. After preserving the mixture at room temperature for 2 days, LANCE count was measured by using ARVO-SX multilabel counter (by Perkin Elmer) in accordance with the protocol of the LANCE method. At the same time, the mouse adiponectin preparation (8060-K, by LINCO) was also measured, and the concentration of adiponectin in the culture supernatant was calculated from the calibration curve of the preparation.

[2] = tested on: ob/ob mice; experiment: Adiponectin concentration in plasma of ob/ob mice given experimental diets; assay type: in vivo, mouse; conditions: experimental diet containing 4%, 17 days
Source text: Male ob/ob mice of 5 week old (purchased from Charles River Laboratories Japan, Inc.) were preliminarily fed by a basic diet containing 25% by weight ratio of fats. Then, they were divided into groups so that their body weights and non-fasting blood glucose were the same between the groups. The used basic diet contained 17% by weight of casein and 48% by weight of starch in addition to 25% of lipids. Then, an experimental diet (containing 25% of fats) containing 4% of BCAA (its composition is a mixture of Leu, Ile and Val; their weight ratio is […]=1:1:1), Leu or Ile was provided to them. The control group was given an experimental diet wherein casein was increased by 4% from the basic diet instead of the amino acids (Control Group). […] On the 17th day of provision of the experimental diet, their blood was collected and their blood glucose was measured to determine the adiponectin concentration in plasma. […] After extracting RNA, adiponectin mRNA was determined. The blood glucose of a mouse was measured by collecting 6 μL of its blood from the caudal vein and using a Fuji […] system (produced by FUJIFILM Medical Co., Ltd.). The adiponectin concentration in plasma was measured by the following method. […] After leaving the mixture at room temperature for 2 days, LANCE count was measured by using ARVO-SX multilabel counter (by Perkin Elmer) in accordance with the protocol of the LANCE method. […]

[3] = tested on: adiponectin mRNA; experiment: Adiponectin mRNA in subcutaneous fats of ob/ob mice given experimental diets; assay type: in vivo, mouse; conditions: 23rd day of 4% diet, amended with β-actin mRNA
Source text: Male ob/ob mice of 5 week old (purchased from Charles River Laboratories Japan, Inc.) were preliminarily fed by a basic diet containing 25% by weight ratio of fats. Then, they were divided into groups so that their body weights and non-fasting blood glucose were the same between the groups. The used basic diet contained 17% by weight of casein and 48% by weight of starch in addition to 25% of lipids. Then, an experimental diet (containing 25% of fats) containing 4% of BCAA (its composition is a mixture of Leu, Ile and Val; their weight ratio is Leu:Ile:Val=1:1:1), Leu or Ile was provided to them. The control group was given an experimental diet wherein casein was increased by 4% from the basic diet instead of the amino acids (Control Group). As for the composition of each experimental diet, the starch content was adjusted so that each calorie per unit weight became the same. On the 17th day of provision of the experimental diet, their blood was collected and their blood glucose was measured to determine the adiponectin concentration in plasma. Further, on the 23rd day after starting the provision of the experimental food, autopsy was conducted, and subcutaneous fats were collected to freeze for preservation. After extracting RNA, adiponectin mRNA was determined. […]

[4] = tested on: ob/ob mice; experiment: Non-fasting blood glucose of ob/ob mice given experimental diets; assay type: in vivo, mouse; conditions: experimental diet containing 4%, 17 days
Source text: Male ob/ob mice of 5 week old (purchased from Charles River Laboratories Japan, Inc.) were preliminarily fed by a basic diet containing 25% by weight ratio of fats. Then, they were divided into groups so that their body weights and non-fasting blood glucose were the same between the groups. The used basic diet contained 17% by weight of casein and 48% by weight of starch in addition to 25% of lipids. Then, an experimental diet (containing 25% of fats) containing 4% of BCAA (its composition is a mixture of Leu, Ile and Val; their weight ratio is […]=1:1:1), Leu or Ile was provided to them. The control group was given an experimental diet wherein casein was increased by 4% from the basic diet instead of the amino acids (Control Group). As for the composition of each experimental diet, the starch content was adjusted so that each calorie per unit weight became the same. On the 17th day of provision of the experimental diet, their blood was collected and their blood glucose was measured to determine the adiponectin concentration in plasma. […] After extracting RNA, adiponectin mRNA was determined. The blood glucose of a mouse was measured by collecting 6 μL of its blood from the caudal vein and using a Fuji […] system (produced by FUJIFILM Medical Co., Ltd.). The adiponectin concentration in plasma was measured by the following method.

SMILES	Concentration of adiponectin in the case of adding one kind of amino acids to Zero medium [1] [ng/mL]	concentration of adiponectin in the culture supernatant in mediums to which the amino acid was added [1]	concentration of adiponectin in mediums without the amino acid [1]	production of adiponectin as compared with Zero medium (FIG. 1) [1]	adiponectin concentration in plasma as compared with before the start of providing the diet (FIG. 3) [2]	amount of adiponectin mRNA in adipose tissues (FIG. 5) [3]	non-fasting blood glucose as compared with before the start of providing the diet (FIG. 2) [4]
C[C@H](N)C(=O)O [Ala, alanine]	98	increased	–	–	–	–	–
N[C@@H](CS)C(=O)O [Cys, cysteine]	83	increased	significantly decreased	–	–	–	–
NC(=O)CC[C@H](N)C(=O)O [Gln, glutamine]	21	–	–	–	–	–	–
CC[C@H](C)[C@H](N)C(=O)O [Ile, isoleucine]	119	increased	–	increase of the production of adiponectin was seen	tended to increase	tended to increase	significantly decreased
CC(C)C[C@H](N)C(=O)O [Leu, leucine]	–	–	–	increase of the production of adiponectin was seen	tended to increase	tended to increase	significantly decreased
CSCC[C@H](N)C(=O)O [Met, methionine]	66	–	significantly decreased	–	–	–	–
CC(C)[C@H](N)C(=O)O [Val, valine]	83	increased	significantly decreased	increase of the production of adiponectin was seen	–	–	–
